Reference: ChEMBL document CHEMBL2321714, “Novel Aza-resveratrol analogs: synthesis, characterization and anticancer activity against breast cancer cell lines” (Bioorg Med Chem Lett, 2013)
The source made the active and inactive calls. The calls are words filed in the database; no cut-off is given here.

Assays:
MDA-MB-231 [1] = test: Cytotoxicity against human MDA-MB-231 cells at 50 uM by MTT assay; assay type: functional
T47D [2] = test: Cytotoxicity against human T47D cells by MTT assay; assay type: functional, cell-based
MDA-MB-231 [3] = test: Induction of autophagy in human MDA-MB-231 cells assessed as increase in Beclin-1 expression at 50 uM after 12 hrs by Western blot analysis; assay type: functional, cell-based
MCF-10A = test: Cytotoxicity against human MCF10A cells at 50 uM by MTT assay; assay type: cell-based
T47D [4] = test: Cytotoxicity against human T47D cells at 50 uM by MTT assay; assay type: functional
MDA-MB-231 [5] = test: Cytotoxicity against human MDA-MB-231 cells by MTT assay; assay type: functional, cell-based
T47D [6] = test: Induction of autophagy in human T47D cells assessed as increase in Beclin-1 expression at 50 uM after 12 hrs by Western blot analysis; assay type: functional, cell-based

Cc1ccc(/N=C/c2ccc(O)c(O)c2)cc1
Activity (MDA-MB-231 [1]): 65%
IC50 (T47D [2]): 32 µM
Activity (MDA-MB-231 [3]): Active
Activity (MCF-10A): Non-toxic
Activity (T47D [4]): 40%
IC50 (MDA-MB-231 [5]): 21 µM
Activity (T47D [6]): Active

Oc1ccc(/C=N/c2ccc3[nH]ccc3c2)cc1O
Activity (MDA-MB-231 [1]): inactive
Activity (MCF-10A): Non-toxic
Activity (T47D [4]): 40%

COc1ccc(/N=C/c2ccc(O)c(O)c2)cc1
Activity (MDA-MB-231 [1]): Active
Activity (MCF-10A): Non-toxic
Activity (T47D [4]): Active

Oc1ccc(/N=C/c2ccc(O)c(O)c2)cc1
Activity (MDA-MB-231 [1]): 65%
IC50 (T47D [2]): 44 µM
Activity (MDA-MB-231 [3]): Active
Activity (MCF-10A): Non-toxic
Activity (T47D [4]): 40%
IC50 (MDA-MB-231 [5]): 29 µM
Activity (T47D [6]): Active

Oc1ccc(/C=N/c2ccc(Cl)cc2)cc1O
Activity (MDA-MB-231 [1]): Active
Activity (MCF-10A): Non-toxic
Activity (T47D [4]): Active

Oc1ccc(/C=N/c2ccc(F)cc2)cc1O
Activity (MDA-MB-231 [1]): Active
Activity (MCF-10A): Non-toxic
Activity (T47D [4]): Active

Oc1ccc(/C=C/c2cc(O)cc(O)c2)cc1 [RESVERATROL]
Activity (MDA-MB-231 [1]): 40%
IC50 (T47D [2]): 76 µM
Activity (T47D [4]): 40%
IC50 (MDA-MB-231 [5]): 66 µM
